Assay results taken from ChEMBL document CHEMBL1153480, “Study on the potential anti-cancer activity of phosphonium and ammonium-based ionic liquids” (2009).

Legend:
Type in all cases: functional
786-0 [1] = assay: cells; conditions: Homo sapiens, read-out: LC50 (the source's name)
Description: Cytotoxicity against human 786-0 cells by SRB assay

T47D [2] = assay: cells; conditions: Homo sapiens
Description: Growth inhibition of human T47D cells assessed as cell growth at 10 uM by SRB assay

cells [3] = conditions: Homo sapiens, Hs-578T
Description: Growth inhibition of human Hs 578T cells assessed as cell growth at 10 uM by SRB assay

SK-MEL-2 = assay: cells; conditions: Homo sapiens
Description: Growth inhibition of human SK-MEL-2 cells assessed as drug level required for 50% reduction in net protein increase by SRB assay relative to control

NCI-H23 [4] = assay: cells; conditions: Homo sapiens
Description: Growth inhibition of human NCI-H23 cells assessed as cell growth at 10 uM by SRB assay

CCRF-CEM [5] = assay: cells; conditions: Homo sapiens
Description: Growth inhibition of human CCRF-CEM cells assessed as cell growth at 10 uM by SRB assay

OVCAR-3 [6] = assay: Cytotoxicity against human OVCAR-3 cells by SRB assay; conditions: read-out: LC50 (the source's name)
OVCAR-5 [7] = assay: cells; conditions: Homo sapiens
Description: Growth inhibition of human OVCAR5 cells assessed as cell growth at 10 uM by SRB assay

786-0 [8] = assay: cells; conditions: Homo sapiens
Description: Growth inhibition of human 786-0 cells assessed as drug level required for 50% reduction in net protein increase by SRB assay relative to control

NCI-H23 [9] = assay: Cytotoxicity against human NCI-H23 cells by SRB assay; conditions: read-out: LC50 (the source's name)
MDA-MB-435 [10] = assay: cells; conditions: Homo sapiens
Description: Growth inhibition of human MDA-MB-435 cells assessed as drug level required for 50% reduction in net protein increase by SRB assay relative to control

RPMI-8226 [11] = assay: cells; conditions: Homo sapiens
Description: Growth inhibition of human RPMI8226 cells assessed as cell growth at 10 uM by SRB assay

NCI-H23 [12] = assay: cells; conditions: Homo sapiens; remark: listed apart in the source
Description: Growth inhibition of human NCI-H23 cells assessed as drug level required for 50% reduction in net protein increase by SRB assay relative to control

KM12 [13] = assay: cells; conditions: Homo sapiens
Description: Growth inhibition of human KM12 cells assessed as cell growth at 10 uM by SRB assay

SNB-19 = assay: cells; conditions: Homo sapiens
Description: Growth inhibition of human SNB19 cells assessed as cell growth at 10 uM by SRB assay

RXF 393 = assay: cells; conditions: Homo sapiens
Description: Growth inhibition of human RFX393 cells assessed as drug level required for 50% reduction in net protein increase by SRB assay relative to control

UO-31 [14] = assay: cells; conditions: Homo sapiens
Description: Growth inhibition of human UO31 cells assessed as drug level required for 50% reduction in net protein increase by SRB assay relative to control

OVCAR-8 = assay: cells; conditions: Homo sapiens
Description: Growth inhibition of human OVCAR8 cells assessed as cell growth at 10 uM by SRB assay

A549 = assay: cells; conditions: Homo sapiens
Description: Growth inhibition of human A549 cells assessed as drug level required for 50% reduction in net protein increase by SRB assay relative to control

MDA-MB-468 [15] = assay: Cytotoxicity against human MDA-MB-468 cells by SRB assay; conditions: read-out: LC50 (the source's name)
HCC 2998 = assay: cells; conditions: Homo sapiens
Description: Growth inhibition of human HCC2998 cells assessed as drug level required for 50% reduction in net protein increase by SRB assay relative to control

cells [16] = conditions: Homo sapiens, CAKI
Description: Growth inhibition of human CAKI cells assessed as drug level required for 50% reduction in net protein increase by SRB assay relative to control

UACC-257 = assay: cells; conditions: Homo sapiens
Description: Growth inhibition of human UACC257 cells assessed as cell growth at 10 uM by SRB assay

U-251 = assay: cells; conditions: Homo sapiens
Description: Growth inhibition of human U251 cells assessed as cell growth at 10 uM by SRB assay

SN12C [17] = assay: cells; conditions: Homo sapiens
Description: Growth inhibition of human SN12C cells assessed as cell growth at 10 uM by SRB assay

SK-OV-3 [18] = assay: cells; conditions: Homo sapiens
Description: Growth inhibition of human SKOV3 cells assessed as drug level required for 50% reduction in net protein increase by SRB assay relative to control

OVCAR-3 [19] = assay: cells; conditions: Homo sapiens
Description: Growth inhibition of human OVCAR-3 cells assessed as drug level required for 50% reduction in net protein increase by SRB assay relative to control

COLO 205 [20] = assay: cells; conditions: Homo sapiens
Description: Growth inhibition of human COLO205 cells assessed as drug level required for 50% reduction in net protein increase by SRB assay relative to control

M14 [21] = assay: cells; conditions: Homo sapiens
Description: Growth inhibition of human M14 cells assessed as cell growth at 10 uM by SRB assay

EKVX = assay: cells; conditions: Homo sapiens
Description: Growth inhibition of human EKVX cells assessed as drug level required for 50% reduction in net protein increase by SRB assay relative to control

RPMI-8226 [22] = assay: cells; conditions: Homo sapiens; remark: listed apart in the source
Description: Growth inhibition of human RPMI8226 cells assessed as drug level required for 50% reduction in net protein increase by SRB assay relative to control

MDA-MB-468 [23] = assay: cells; conditions: Homo sapiens
Description: Growth inhibition of human MDA-MB-468 cells assessed as cell growth at 10 uM by SRB assay

MCF7 = assay: Cytotoxicity against human MCF7 cells by SRB assay; conditions: read-out: LC50 (the source's name)
M14 [24] = assay: Cytotoxicity against human M14 cells by SRB assay; conditions: read-out: LC50 (the source's name)
PC-3 [25] = assay: Cytotoxicity against human PC3 cells by SRB assay; conditions: read-out: LC50 (the source's name)
KM12 [26] = assay: Cytotoxicity against human KM12 cells by SRB assay; conditions: read-out: LC50 (the source's name)
HOP-62 = assay: cells; conditions: Homo sapiens
Description: Growth inhibition of human HOP62 cells assessed as drug level required for 50% reduction in net protein increase by SRB assay relative to control

SF-539 [27] = assay: cells; conditions: Homo sapiens
Description: Growth inhibition of human SF539 cells assessed as drug level required for 50% reduction in net protein increase by SRB assay relative to control

SNB-75 = assay: Cytotoxicity against human SNB75 cells by SRB assay; conditions: read-out: LC50 (the source's name)
SK-OV-3 [28] = assay: Cytotoxicity against human SKOV3 cells by SRB assay; conditions: read-out: LC50 (the source's name)
K562 [29] = assay: Cytotoxicity against human K562 cells by SRB assay; conditions: read-out: LC50 (the source's name)
SR = assay: Cytotoxicity against human SR cells by SRB assay; conditions: read-out: LC50 (the source's name)
PC-3 [30] = assay: cells; conditions: Homo sapiens
Description: Growth inhibition of human PC3 cells assessed as drug level required for 50% reduction in net protein increase by SRB assay relative to control

BT-549 = assay: cells; conditions: Homo sapiens
Description: Growth inhibition of human BT549 cells assessed as drug level required for 50% reduction in net protein increase by SRB assay relative to control

MOLT-4 = assay: Cytotoxicity against human MOLT4 cells by SRB assay; conditions: read-out: LC50 (the source's name)
NCI/ADR-RES [31] = assay: cells; conditions: Homo sapiens
Description: Growth inhibition of human NCI/ADR-RES cells assessed as cell growth at 10 uM by SRB assay

SK-MEL-28 = assay: cells; conditions: Homo sapiens
Description: Growth inhibition of human SK-MEL-28 cells assessed as cell growth at 10 uM by SRB assay

SK-MEL-5 = assay: cells; conditions: Homo sapiens
Description: Growth inhibition of human SK-MEL-5 cells assessed as drug level required for 50% reduction in net protein increase by SRB assay relative to control

MDA-MB-435 [32] = assay: cells; conditions: Homo sapiens; remark: listed apart in the source
Description: Growth inhibition of human MDA-MB-435 cells assessed as cell growth at 10 uM by SRB assay

ACHN = assay: cells; conditions: Homo sapiens
Description: Growth inhibition of human ACHN cells assessed as cell growth at 10 uM by SRB assay

CCRF-CEM [33] = assay: cells; conditions: Homo sapiens; remark: listed apart in the source
Description: Growth inhibition of human CCRF-CEM cells assessed as drug level required for 50% reduction in net protein increase by SRB assay relative to control

NCI-H460 = assay: cells; conditions: Homo sapiens
Description: Growth inhibition of human NCI-H460 cells assessed as drug level required for 50% reduction in net protein increase by SRB assay relative to control

[34] = Cytotoxicity against human CAKI cells by SRB assay; conditions: read-out: LC50 (the source's name)
HT-29 = assay: Cytotoxicity against human HT-29 cells by SRB assay; conditions: read-out: LC50 (the source's name)
OVCAR-3 [35] = assay: cells; conditions: Homo sapiens; remark: listed apart in the source
Description: Growth inhibition of human OVCAR-3 cells assessed as cell growth at 10 uM by SRB assay

NCI/ADR-RES [36] = assay: cells; conditions: Homo sapiens; remark: listed apart in the source
Description: Growth inhibition of human NCI/ADR-RES cells assessed as drug level required for 50% reduction in net protein increase by SRB assay relative to control

786-0 [37] = assay: cells; conditions: Homo sapiens; remark: listed apart in the source
Description: Growth inhibition of human 786-0 cells assessed as cell growth at 10 uM by SRB assay

IGROV-1 = assay: Cytotoxicity against human IGROV1 cells by SRB assay; conditions: read-out: LC50 (the source's name)
Malme-3M = assay: cells; conditions: Homo sapiens
Description: Growth inhibition of human MALME-3M cells assessed as drug level required for 50% reduction in net protein increase by SRB assay relative to control

T47D [38] = assay: Cytotoxicity against human T47D cells by SRB assay; conditions: read-out: LC50 (the source's name)
SF-539 [39] = assay: cells; conditions: Homo sapiens; remark: listed apart in the source
Description: Growth inhibition of human SF539 cells assessed as cell growth at 10 uM by SRB assay

K562 [40] = assay: cells; conditions: Homo sapiens
Description: Growth inhibition of human K562 cells assessed as drug level required for 50% reduction in net protein increase by SRB assay relative to control

T47D [41] = assay: cells; conditions: Homo sapiens; remark: listed apart in the source
Description: Growth inhibition of human T47D cells assessed as drug level required for 50% reduction in net protein increase by SRB assay relative to control

UO-31 [42] = assay: Cytotoxicity against human UO31 cells by SRB assay; conditions: read-out: LC50 (the source's name)
NCI-H522 [43] = assay: Cytotoxicity against human NCI-H522 cells by SRB assay; conditions: read-out: LC50 (the source's name)
SF-268 = assay: cells; conditions: Homo sapiens
Description: Growth inhibition of human SF268 cells assessed as cell growth at 10 uM by SRB assay

NCI-H522 [44] = assay: cells; conditions: Homo sapiens
Description: Growth inhibition of human NCI-H522 cells assessed as cell growth at 10 uM by SRB assay

OVCAR-5 [45] = assay: cells; conditions: Homo sapiens; remark: listed apart in the source
Description: Growth inhibition of human OVCAR5 cells assessed as drug level required for 50% reduction in net protein increase by SRB assay relative to control

M14 [46] = assay: cells; conditions: Homo sapiens; remark: listed apart in the source
Description: Growth inhibition of human M14 cells assessed as drug level required for 50% reduction in net protein increase by SRB assay relative to control

SF-295 = assay: cells; conditions: Homo sapiens
Description: Growth inhibition of human SF295 cells assessed as drug level required for 50% reduction in net protein increase by SRB assay relative to control

COLO 205 [47] = assay: Cytotoxicity against human COLO205 cells by SRB assay; conditions: read-out: LC50 (the source's name)
SN12C [48] = assay: cells; conditions: Homo sapiens; remark: listed apart in the source
Description: Growth inhibition of human SN12C cells assessed as drug level required for 50% reduction in net protein increase by SRB assay relative to control

## CCCCCCCCCCCCCCCCCCPCCCCCCCCCCCCCC.O=S(=O)(NS(=O)(=O)C(F)(F)F)C(F)(F)F (configuration not stated)
786-0 [1]
  CC50: > 100000 nM
T47D [2]
  growth at 10 µM: -14.8%
Cells [3]
  growth at 10 µM: -35.8%
SK-MEL-2
  GI50: 27 nM
NCI-H23 [4]
  growth at 10 µM: -39.3%
CCRF-CEM [5]
  growth at 10 µM: 26.4%
OVCAR-3 [6]
  CC50: 6760 nM
OVCAR-5 [7]
  growth at 10 µM: -7.29%
786-0 [8]
  GI50: 253 nM
NCI-H23 [9]
  CC50: > 100000 nM
MDA-MB-435 [10]
  GI50: 45 nM
RPMI-8226 [11]
  growth at 10 µM: 59.4%
NCI-H23 [12]
  GI50: 192 nM
KM12 [13]
  growth at 10 µM: -100%
SNB-19
  growth at 10 µM: 8.99%
RXF 393
  GI50: 141 nM
UO-31 [14]
  GI50: 350 nM
OVCAR-8
  growth at 10 µM: -79.9%
A549
  GI50: 292 nM
MDA-MB-468 [15]
  CC50: 2560 nM
HCC 2998
  GI50: 240 nM
Cells [16]
  GI50: 236 nM
UACC-257
  growth at 10 µM: -34.6%
U-251
  growth at 10 µM: -68.4%
SN12C [17]
  growth at 10 µM: -79.1%
SK-OV-3 [18]
  GI50: 2610 nM
OVCAR-3 [19]
  GI50: 51 nM
COLO 205 [20]
  GI50: 182 nM
M14 [21]
  growth at 10 µM: -83.9%
EKVX
  GI50: 123 nM
RPMI-8226 [22]
  GI50: 16 nM
MDA-MB-468 [23]
  growth at 10 µM: -88.3%
MCF7
  CC50: > 100000 nM
M14 [24]
  CC50: > 100000 nM
PC-3 [25]
  CC50: 5900 nM
KM12 [26]
  CC50: > 100000 nM
HOP-62
  GI50: 435 nM
SF-539 [27]
  GI50: 174 nM
SNB-75
  CC50: > 100000 nM
SK-OV-3 [28]
  CC50: > 100000 nM
K562 [29]
  CC50: > 100000 nM
SR
  CC50: 8080 nM
PC-3 [30]
  GI50: 45 nM
BT-549
  GI50: 66 nM
MOLT-4
  CC50: > 100000 nM
NCI/ADR-RES [31]
  growth at 10 µM: -10.5%
SK-MEL-28
  growth at 10 µM: -97.8%
SK-MEL-5
  GI50: 79 nM
MDA-MB-435 [32]
  growth at 10 µM: -81%
ACHN
  growth at 10 µM: -26%
CCRF-CEM [33]
  GI50: 26 nM
NCI-H460
  GI50: 315 nM
[34]
  CC50: > 100000 nM
HT-29
  CC50: > 100000 nM
OVCAR-3 [35]
  growth at 10 µM: -100%
NCI/ADR-RES [36]
  GI50: 730 nM
786-0 [37]
  growth at 10 µM: -65.8%
IGROV-1
  CC50: > 100000 nM
Malme-3M
  GI50: 29 nM
T47D [38]
  CC50: > 100000 nM
SF-539 [39]
  growth at 10 µM: 5.67%
K562 [40]
  GI50: 41 nM
T47D [41]
  GI50: 73 nM
UO-31 [42]
  CC50: > 100000 nM
NCI-H522 [43]
  CC50: > 100000 nM
SF-268
  growth at 10 µM: -4.6%
NCI-H522 [44]
  growth at 10 µM: -71.4%
OVCAR-5 [45]
  GI50: 318 nM
M14 [46]
  GI50: 52 nM
SF-295
  GI50: 205 nM
COLO 205 [47]
  CC50: > 100000 nM
SN12C [48]
  GI50: 42 nM
